Experiment [1] concerns the target cGMP-inhibited 3',5'-cyclic phosphodiesterase 3A (Homo sapiens, UniProt Q14432). Format: functional.
Experiment [2] has as its target Prostaglandin G/H synthase 1 (Homo sapiens, UniProt P23219). Format: functional.
Experiment [3] addresses T1, Muscarinic acetylcholine receptor M2 (Homo sapiens, UniProt P08172).
T1 sequence (P08172 whole entry): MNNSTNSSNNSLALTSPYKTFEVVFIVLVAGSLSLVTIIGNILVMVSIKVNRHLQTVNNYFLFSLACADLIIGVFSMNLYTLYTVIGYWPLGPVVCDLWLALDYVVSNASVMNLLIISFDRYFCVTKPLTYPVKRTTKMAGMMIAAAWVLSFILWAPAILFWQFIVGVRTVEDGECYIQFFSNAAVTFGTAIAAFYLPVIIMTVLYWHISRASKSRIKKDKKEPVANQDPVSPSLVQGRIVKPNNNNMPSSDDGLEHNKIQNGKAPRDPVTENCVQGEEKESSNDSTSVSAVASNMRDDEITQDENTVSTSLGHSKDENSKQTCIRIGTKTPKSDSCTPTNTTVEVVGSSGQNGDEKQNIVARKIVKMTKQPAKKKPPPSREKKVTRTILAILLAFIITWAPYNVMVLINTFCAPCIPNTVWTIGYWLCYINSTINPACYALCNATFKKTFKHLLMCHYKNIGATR

For experiment [4], the target named is T2, Alpha-1A adrenergic receptor (Homo sapiens, UniProt P35348).
T2 sequence (P35348 whole entry): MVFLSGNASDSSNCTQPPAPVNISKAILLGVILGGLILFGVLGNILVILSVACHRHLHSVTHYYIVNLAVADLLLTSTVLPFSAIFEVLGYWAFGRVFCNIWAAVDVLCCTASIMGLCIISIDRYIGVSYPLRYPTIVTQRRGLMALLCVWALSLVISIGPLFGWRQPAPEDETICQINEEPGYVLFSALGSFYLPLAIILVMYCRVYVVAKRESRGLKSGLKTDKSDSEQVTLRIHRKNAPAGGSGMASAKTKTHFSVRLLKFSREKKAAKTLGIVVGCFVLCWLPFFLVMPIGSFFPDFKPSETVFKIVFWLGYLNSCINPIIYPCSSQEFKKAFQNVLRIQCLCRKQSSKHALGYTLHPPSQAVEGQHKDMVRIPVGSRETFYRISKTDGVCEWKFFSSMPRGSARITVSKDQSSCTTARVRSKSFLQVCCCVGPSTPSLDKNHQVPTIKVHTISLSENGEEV
Format: functional, cell-based.

Experiment [5] deals with T3, Amine oxidase [flavin-containing] A (Homo sapiens, UniProt P21397).
T3 sequence (P21397 whole entry): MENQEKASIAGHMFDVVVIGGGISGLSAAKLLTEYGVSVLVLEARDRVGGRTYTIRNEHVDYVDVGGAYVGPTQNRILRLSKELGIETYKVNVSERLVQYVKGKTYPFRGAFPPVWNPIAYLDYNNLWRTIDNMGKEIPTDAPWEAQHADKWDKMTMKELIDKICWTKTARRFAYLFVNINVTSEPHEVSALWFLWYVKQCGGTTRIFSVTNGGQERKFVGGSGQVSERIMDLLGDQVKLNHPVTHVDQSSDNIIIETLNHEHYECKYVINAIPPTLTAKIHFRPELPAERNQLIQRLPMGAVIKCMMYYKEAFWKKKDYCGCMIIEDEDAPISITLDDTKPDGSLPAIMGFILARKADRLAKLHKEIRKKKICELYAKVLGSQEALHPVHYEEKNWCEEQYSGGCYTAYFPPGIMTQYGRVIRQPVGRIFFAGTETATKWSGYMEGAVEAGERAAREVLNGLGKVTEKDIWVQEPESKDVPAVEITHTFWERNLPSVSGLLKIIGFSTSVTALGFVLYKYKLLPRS
Format: functional.

AC50 data for 25 compounds are collected here from ChEMBL document CHEMBL5291721, “A preclinical secondary pharmacology resource illuminates target-adverse drug reaction associations of marketed drugs” (Nat Commun, 2023).

Bounds are passed on as bounds.
Note: assay procedure not described here.

Chain of cGMP-inhibited 3',5'-cyclic phosphodiesterase 3A (Q14432 whole entry): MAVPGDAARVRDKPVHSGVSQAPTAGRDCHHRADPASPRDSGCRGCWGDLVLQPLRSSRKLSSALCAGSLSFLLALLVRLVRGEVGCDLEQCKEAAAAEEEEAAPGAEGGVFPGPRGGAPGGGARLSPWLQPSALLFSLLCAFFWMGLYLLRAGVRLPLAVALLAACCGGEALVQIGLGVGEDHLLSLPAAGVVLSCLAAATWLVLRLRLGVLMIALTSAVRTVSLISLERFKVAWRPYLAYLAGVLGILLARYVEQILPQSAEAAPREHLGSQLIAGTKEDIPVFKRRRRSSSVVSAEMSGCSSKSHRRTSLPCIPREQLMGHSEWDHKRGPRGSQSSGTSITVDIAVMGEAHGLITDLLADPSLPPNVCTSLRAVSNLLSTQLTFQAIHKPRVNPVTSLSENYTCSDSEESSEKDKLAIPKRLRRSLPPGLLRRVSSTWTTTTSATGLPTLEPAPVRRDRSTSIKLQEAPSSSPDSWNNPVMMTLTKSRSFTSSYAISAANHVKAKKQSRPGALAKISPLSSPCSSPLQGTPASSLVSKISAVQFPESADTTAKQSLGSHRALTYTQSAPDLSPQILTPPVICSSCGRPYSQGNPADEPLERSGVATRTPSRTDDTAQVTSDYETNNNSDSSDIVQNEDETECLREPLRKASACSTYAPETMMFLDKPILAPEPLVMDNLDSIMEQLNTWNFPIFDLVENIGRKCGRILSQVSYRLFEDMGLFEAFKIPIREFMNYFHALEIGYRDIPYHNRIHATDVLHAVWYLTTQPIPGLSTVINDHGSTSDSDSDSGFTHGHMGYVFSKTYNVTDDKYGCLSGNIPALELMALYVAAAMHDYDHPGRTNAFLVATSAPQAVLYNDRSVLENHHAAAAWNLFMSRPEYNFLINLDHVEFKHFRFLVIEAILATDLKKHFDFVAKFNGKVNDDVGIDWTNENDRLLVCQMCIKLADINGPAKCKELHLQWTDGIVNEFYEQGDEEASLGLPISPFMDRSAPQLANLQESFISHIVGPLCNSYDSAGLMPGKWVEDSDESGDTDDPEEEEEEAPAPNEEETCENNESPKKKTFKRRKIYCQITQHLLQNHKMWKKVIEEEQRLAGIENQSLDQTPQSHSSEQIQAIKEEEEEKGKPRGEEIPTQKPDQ
Chain of Prostaglandin G/H synthase 1 (P23219 whole entry): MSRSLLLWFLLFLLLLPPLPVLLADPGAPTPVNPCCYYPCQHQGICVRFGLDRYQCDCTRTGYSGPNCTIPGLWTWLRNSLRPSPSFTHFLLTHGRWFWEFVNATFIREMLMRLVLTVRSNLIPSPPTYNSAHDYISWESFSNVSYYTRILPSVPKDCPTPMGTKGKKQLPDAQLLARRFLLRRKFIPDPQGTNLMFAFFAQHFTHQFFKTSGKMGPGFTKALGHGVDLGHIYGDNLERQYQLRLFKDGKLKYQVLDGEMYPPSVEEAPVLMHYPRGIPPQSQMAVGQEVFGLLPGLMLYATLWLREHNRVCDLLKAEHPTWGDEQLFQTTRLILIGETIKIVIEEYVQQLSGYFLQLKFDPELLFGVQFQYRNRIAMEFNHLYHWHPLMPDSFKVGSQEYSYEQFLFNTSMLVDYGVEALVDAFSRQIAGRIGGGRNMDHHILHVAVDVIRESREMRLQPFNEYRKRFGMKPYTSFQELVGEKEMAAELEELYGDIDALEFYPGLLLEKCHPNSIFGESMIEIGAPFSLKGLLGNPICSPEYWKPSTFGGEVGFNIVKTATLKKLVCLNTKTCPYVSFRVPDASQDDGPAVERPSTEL

What is called AC50 is the concentration at which the activity in the assay is half-maximal. The low end stands for activity at low concentration, the high end for activity only at high concentration. `O=C(O)c1ccccc1` [BENZOIC ACID]: the AC50 in experiment [1], in experiment [2], in experiment [3], in experiment [4] and in experiment [5] was above 30 µM each time.

For the compound `CC(C)C(=O)Oc1ccc(CO)cc1[C@H](CCN(C(C)C)C(C)C)c1ccccc1` [FESOTERODINE], the AC50 in experiment [1] was above 30 µM; in experiment [2] it was above 30 µM; in experiment [3], 0.414 µM; in experiment [4], above 30 µM; in experiment [5], above 30 µM.

Consider `CC(=O)NCCCCCC(=O)O` [ACEXAMIC ACID], for which the concentration at half-maximal activity (AC50) in experiment [1] was above 30 µM; in experiment [2] it was above 30 µM; in experiment [3], above 30 µM; in experiment [4], 18.9 µM; in experiment [5] it was above 30 µM.

For `CCCCC1C(=O)N(c2ccccc2)N(c2ccc(O)cc2)C1=O` (stereo not given) [OXYPHENBUTAZONE ANHYDROUS], the AC50 in experiment [1] is above 30 µM; in experiment [2], 21.8 µM; in experiment [3], above 30 µM; in experiment [4] it was above 30 µM; in experiment [5] it was above 30 µM.

Consider `C[N+](C)(C)CCOC(=O)CCC(=O)OCC[N+](C)(C)C` [SUXAMETHONIUM], for which the AC50 in experiment [1] is above 30 µM; in experiment [2], above 30 µM; in experiment [3], above 30 µM; in experiment [4], 0.667 µM; in experiment [5], above 30 µM.

Consider `C[C@]12C=CC(=O)C=C1CC[C@H]1[C@@H]3C[C@@H](O)[C@](O)(C(=O)CO)[C@@]3(C)C[C@H](O)[C@@]12F` [TRIAMCINOLONE], for which the AC50 in experiment [1], in experiment [2], in experiment [3], in experiment [4] and in experiment [5] was above 30 µM each time.

In the case of `C[Se]CC[C@H](N)C(=O)O` [SELENOMETHIONINE], the AC50 in experiment [1], in experiment [2], in experiment [3], in experiment [4] and in experiment [5] was above 30 µM in each case.

`CC1(C)O[C@@H]2C[C@H]3[C@@H]4C[C@H](F)C5=CC(=O)C=C[C@]5(C)[C@@]4(F)[C@@H](O)C[C@]3(C)[C@]2(C(=O)CO)O1` [FLUOCINOLONE ACETONIDE]: the AC50 in experiment [1], in experiment [2], in experiment [3], in experiment [4] and in experiment [5] was above 30 µM each time.

Turning to `Cc1ccc(C(=O)c2ccc(CC(=O)O)n2C)cc1` [TOLMETIN], the AC50 in experiment [1] was above 30 µM; in experiment [2], 0.0415 µM; in experiment [3], above 30 µM; in experiment [4], above 30 µM; in experiment [5], above 30 µM.

Turning to `Cc1ccccc1C(=O)Nc1ccc(C(=O)N2CCCC(O)c3cc(Cl)ccc32)c(C)c1` (stereo not given) [TOLVAPTAN], the AC50 in experiment [1], in experiment [2], in experiment [3], in experiment [4] and in experiment [5] was above 30 µM throughout.

As to `C=CC(=O)Nc1cccc(Oc2nc(Nc3ccc(N4CCN(C)CC4)cc3)nc3ccsc23)c1` [OLMUTINIB], the AC50 in experiment [1] is above 30 µM; in experiment [2], above 30 µM; in experiment [3], 1.64 µM; in experiment [4], above 30 µM; in experiment [5], above 30 µM.

As to `CCCCC(CC)CN1CN(CC(CC)CCCC)CC(C)(N)C1` (stereo not given) [HEXETIDINE], the AC50 in experiment [1] is above 30 µM; in experiment [2] it was above 30 µM; in experiment [3], 3.18 µM; in experiment [4] it was above 30 µM; in experiment [5], above 30 µM.

In the case of `CCNC(=O)/C=C(C)/C=C/C=C(C)/C=C/c1c(C)cc(OC)c(C)c1C` [MOTRETINIDE], the AC50 in experiment [1] is above 30 µM; in experiment [2] it was 12 µM; in experiment [3], above 30 µM; in experiment [4], above 30 µM; in experiment [5], above 30 µM.

For `C[N+](C)(CCCCCC[N+](C)(C)C1c2ccccc2-c2ccccc21)C1c2ccccc2-c2ccccc21` [HEXAFLUORENIUM], the AC50 in experiment [1] is above 30 µM; in experiment [2] it was above 30 µM; in experiment [3], 0.514 µM; in experiment [4], above 30 µM; in experiment [5], above 30 µM.

Consider `Cc1cc(=O)[nH]c(=S)[nH]1` [METHYLTHIOURACIL], for which the AC50 in experiment [1], in experiment [2], in experiment [3], in experiment [4] and in experiment [5] was above 30 µM throughout.

For `CC[C@@H]1C[C@]1(NC(=O)[C@@H]1C[C@@H]2CN1C(=O)[C@H](C(C)(C)C)NC(=O)OCC(C)(C)CCCCc1cccc3c1CN(C3)C(=O)O2)C(=O)NS(=O)(=O)C1CC1`, the AC50 in experiment [1] was above 30 µM; in experiment [2] it was above 30 µM; in experiment [3], above 30 µM; in experiment [4], 29.7 µM; in experiment [5] it was above 30 µM.

In the case of `COC(=O)[C@@H](N)Cc1ccc(O)c(O)c1` [MELEVODOPA], the AC50 in experiment [1], in experiment [2], in experiment [3], in experiment [4] and in experiment [5] was above 30 µM in each case.

For the compound `Cc1cc(=O)oc2cc(O)ccc12` [HYMECROMONE], the half-maximal activity concentration (AC50) in experiment [1], in experiment [2], in experiment [3], in experiment [4] and in experiment [5] was above 30 µM throughout.

As for `C[C@H]1O[C@@H](O[C@H]2CC[C@@]3(C)[C@H](CC[C@@H]4[C@@H]3C[C@@H](O)[C@]3(C)[C@@H](C5=CC(=O)OC5)CC[C@]43O)C2)C[C@H](O)[C@@H]1O[C@H]1C[C@H](O)[C@H](O[C@H]2C[C@H](O)[C@H](O[C@@H]3O[C@H](CO)[C@@H](O)[C@H](O)[C@H]3O)[C@@H](C)O2)[C@@H](C)O1` [DESLANOSIDE], the concentration at half-maximal activity (AC50) in experiment [1], in experiment [2], in experiment [3], in experiment [4] and in experiment [5] was above 30 µM each time.

`C=C(C)CNc1ccc(C(C)C(=O)O)cc1` (stereo not given) [ALMINOPROFEN]: the AC50 in experiment [1], in experiment [2], in experiment [3], in experiment [4] and in experiment [5] was above 30 µM each time.

On to `CC(C(=O)O)c1cccc(Oc2ccccc2)c1` (stereo not given) [FENOPROFEN], for which the half-maximal activity concentration (AC50) in experiment [1] is above 30 µM; in experiment [2], 13.5 µM; in experiment [3], above 30 µM; in experiment [4] it was above 30 µM; in experiment [5] it was above 30 µM.

Turning to `O=C(O)CN(CCN(CC(=O)O)CC(=O)O)CCN(CC(=O)O)CC(=O)O` [PENTETIC ACID], the AC50 was above 30 µM in experiment [1]; above 30 µM in experiment [2]; 3.91 µM in experiment [3]; above 30 µM in experiment [4]; above 30 µM in experiment [5].

On to `C=N[C@@H](C(=O)N[C@@H]1C(=O)N2[C@@H]1SC(C)(C)[C@@H]2C(=O)O)c1ccccc1` [METAMPICILLIN], for which the AC50 is above 30 µM in experiment [1]; 11.8 µM in experiment [2]; above 30 µM in experiment [3]; above 30 µM in experiment [4]; above 30 µM in experiment [5].

Turning to `CC[C@H]1OC(=O)[C@H](C)[C@@H](O[C@H]2C[C@@](C)(OC)[C@@H](O)[C@H](C)O2)[C@H](C)[C@@H](O[C@@H]2O[C@H](C)C[C@H](N(C)C)[C@H]2O)[C@](C)(O)C[C@@H](C)[C@@H]2N[C@@H](COCCOC)O[C@H]([C@H]2C)[C@]1(C)O` [DIRITHROMYCIN], the AC50 in experiment [1], in experiment [2], in experiment [3], in experiment [4] and in experiment [5] was above 30 µM each time.

As to `Nc1cccc2c1C(=O)N(C1CCC(=O)NC1=O)C2=O` (stereo not given) [POMALIDOMIDE], the AC50 in experiment [1], in experiment [2], in experiment [3], in experiment [4] and in experiment [5] was above 30 µM throughout.
